According to US20250346903A1, “USE OF CONJUGATES OF MICRORNA AND CARDIAC TARGETING PEPTIDES FOR TREATING HEART FAILURE” (Georgetown University, priority 2022, published 2025):

Columns and labels:
[1] = system: Connexin 43 (CNX43); test: CNX43 phosphorylation in HCMs (immunostaining); assay type: cell-based, human; conditions: HCMs treated with PMA as a control
Method: Gap junction protein Connexin 43 (CNX43) is a known downstream target of PKC activity in cardiomyocytes. Thus, the effects of Ang2/PE and the CTP-microRNA106a on CNX43 in HCMs were studied. CNX43 is phosphorylated on serine 386 by PKCα. In untreated HCMs, gap junctions are prevalent (FIG. 14, Panel A), although only a few junctions are positive for phosphorylation of CNX43 (FIG. 14, Panel B). […] Phosphorylated CNX43 becomes widespread as HCMs are treated with Ang2/PE for 24 hours (FIG. 14, Panels E and F).

[2] = system: PKC; test: PKC localization in HCMs (anti-PKCα staining); assay type: cell-based, human; conditions: PMA 30 minutes
From the text: One potential mechanism of increased PLCβ1 expression is increased PKC activity. Thus, PKC localization was studied in treated HCMs. […] In HCMs treated with Ang2/PE, PKC was translocated to the plasma membrane (FIG. 12, Panel C).

[3] = system: NfκB response element; test: NfκB response element luciferase assay in HCMs; assay type: cell-based, human; conditions: Ang2/PE 24 hours, miRNAs transfected
From the text: Once in the nucleus NfκB binds to an NfκB response element to initiate transcription of downstream genes. To study how the CTP-miRNA106a conjugate can impact this effect, a plasmid containing an NfκB response element driving luciferase production (Promega, Inc) was used to generate HCMs expressing this NfκB luciferase response element. […] Moreover, the effect of miRNA106a on impacting Ang2/PE-induced luciferase expression in HCMs was compared to miRNA17, miRNA20a, and miRNA93.

[4] = system: GRK2; test: Western blot of GRK2 in PE/Ang2-treated HCMs; assay type: cell-based, human; conditions: HCMs PE/Ang2 72 hours, then miRNA transfection
Method: The effects of miRNA17, miRNA20a, miRNA93, and miRNA106a on GRK2 signaling were assessed in HCMs treated with PE/Ang2. GRK2 has been identified to cause heart failure when mis-expressed.
The HCMs were subjected to 72 hours of PE/Ang2 treatment, and were subsequently treated with miRNA17, miRNA20a, miRNA93, or miRNA106a, or with the CTP-miRNA106a conjugate.

[5] = system: HDAC4; test: Western blot of HDAC4 in PE/Ang2-treated HCMs; assay type: cell-based, human; conditions: 200 nM miRNA transfected, within 72 hours
Method: (§1) Human cardiomyocytes (HCMs) were subjected to 200 nM phenylephrine (PE) and 10 nM angiotensin 2 (Ang2) to induce hypertrophy (initial stages of heart failure). The HCMs were treated with PE/Ang2 for 24, 48, 72, 96, or 144 hours. Using TransIT-X2 transfection reagent, 200 nM of each miRNA, or in combination, was introduced into PE/Ang2-treated HCMs, followed by analyses of hypertrophic morphology and heart failure gene/protein expression.
(§2) The CTP-miRNA106a conjugate suppressed translation of each protein, as confirmed in three separate experiments. A significant difference was observed between each of the CTP-miRNA106a conjugate-treated set and PE/Ang2-treated HCMs after 144 hours, and no significant difference was observed between each of the CTP-miRNA106a conjugate-treated HCMs and untreated HCMs.

[6] = system: CaMKIIδ; test: Western blot of CaMKIIδ in PE/Ang2-treated HCMs; assay type: cell-based, human; conditions: 200 nM miRNA transfected, within 72 hours
Method: as §1, §2

[7] = system: 3′UTR of PLCβ1; test: PLCβ1 3′UTR luciferase assay in HEK293 cells; assay type: cell-based, human; conditions: miRNA transfected 24 hours after plasmid
[8] = system: HDAC4; test: HDAC4 localization by immunofluorescence in HCMs; assay type: cell-based, human; conditions: HCMs PE/Ang2 72 hours, treatment 24 hours
From the text: (§3) HDAC4 localization was also rescued by the CTP-miRNA106a conjugate. HDAC4 is nuclear in untreated HCMs (see FIG. 4, Panel C), but CaMKIIδ phosphorylation promotes HDAC4 movement into the cytoplasm (see FIG. 4, Panel D) (Hohl et al., 2013).

[9] = system: CaMKIIδ 3′UTR; test: 3′UTR-luciferase assay, CaMKIIδ; assay type: cell-based, human; conditions: miRNA106a with transfection reagent
[10] = system: HCMs; test: Mitochondrial membrane potential, JC-1 staining of HCMs; assay type: cell-based, human; conditions: 200 nM miRNA106a transfected, 72 hours
Method: The effects of miRNA106a on mitochondrial health was assessed using the mitochondrial membrane potential (MMP) probe JC-1 staining. Healthy MMP is observed as JC-1 forms J-aggregates that fluoresce red (˜594 nm) while unhealthy MMP is recognized as green (˜488 nm) JC-1 monomers.

[11] = system: TNF-α; test: FACS of TNF-α expressing HCMs; assay type: cell-based, human; conditions: miR106a transfected, then Ang2/PE
From the text: (§4) To identify if activation of the NfκB pathway by Ang2/PE led to expression of genes that augment hypertrophy and heart failure, HCMs treated with Ang2/PE or treated with both Ang2/PE and the CTP-miRNA106a conjugated were compared to untreated control HCMs by FACS. […] In summary, the CTP-miRNA106a conjugated suppressed NfκB signaling activated by Ang2/PE.

[12] = system: Human cardiomyocytes (HCMs); test: Hypertrophic morphology / cell size of PE/Ang2-treated HCMs; assay type: cell-based; conditions: 200 nM transfection, 72 hours, no PE/Ang2
Method: as §1, §3

[13] = system: GRK2 3′UTR; test: 3′UTR-luciferase assay, GRK2 (control); assay type: cell-based, human; conditions: miRNA106a with transfection reagent; control without target sequence
[14] = system: IL-1β; test: FACS of IL-1β expressing HCMs; assay type: cell-based, human; conditions: miR106a (without CTP) transfected, then Ang2/PE
From the text: as §4

[15] = system: IL-6; test: FACS of IL-6 expressing HCMs; assay type: cell-based, human; conditions: miR106a transfected, then Ang2/PE
From the text: as §4

[16] = system: HDAC4 3′UTR; test: 3′UTR-luciferase assay, HDAC4; assay type: cell-based, human; conditions: miRNA106a with transfection reagent

Row | Compound | phosphorylated CNX43 [1] | PKC localization [2] | NfκB response element luciferase expression [3] | GRK2 expression [4] | HDAC4 overexpression induced by PE/Ang2 [5] | CaMKIIδ overexpression induced by PE/Ang2 [6] | decrease of luciferase activity [7] [%] | HDAC4 localization [8] | CaMKIIδ 3′UTR luciferase expression [9] | JC-1 red:green ratio versus untreated [10] | TNF-α expression [11] | growth in size (hypertrophy) in response to miRNA106a alone [12] | GRK2 3′UTR luciferase expression [13] | IL-1β expression [14] | IL-6 expression [15] | HDAC4 3′UTR luciferase expression [16]
1 | CCCCCCCCCCCCCC(=O)O[C@@H]1[C@@H](C)[C@@]2(O)[C@@H](C=C(CO)C[C@]3(O)C(=O)C(C)=C[C@@H]23)[C@@H]2C(C)(C)[C@]12OC(C)=O [PMA, phorbal myristate acetate] | the phosphorylation patterns are more robust | localized to the plasma membrane | – | – | – | – | – | – | – | – | – | – | – | – | – | –
2 | miRNA17: microRNA, RNA sequence CAAAGUGCUUACAGUGCAGGUAG (SEQ ID NO 2) (listed as RNA, chemistry not given here) | – | – | suppressed luciferase expression significantly | returned to baseline levels | suppressed | suppressed | – | – | – | – | – | – | – | – | – | –
3 | miRNA20a: microRNA, RNA sequence UAAAGUGCUUAUAGUGCAGGUAG (SEQ ID NO 3) (listed as RNA, chemistry not given here) | – | – | lowered luciferase expression | returned to baseline levels | suppressed | suppressed | – | – | – | – | – | – | – | – | – | –
4 | miRNA93: microRNA, RNA sequence CAAAGUGCUGUUCGUGCAGGUAG (SEQ ID NO 4) (listed as RNA, chemistry not given here) | – | – | lowered luciferase expression | returned to baseline levels | suppressed | suppressed | ~50 | – | – | – | – | – | – | – | – | –
5 | miRNA106a: microRNA, RNA sequence AAAAGUGCUUACAGUGCAGGUAG (SEQ ID NO 1) (chemistry not given here) | – | – | suppressed luciferase expression significantly | returned to baseline levels | suppressed | suppressed | ~80 | HDAC4 re-entry into the nucleus | targets the 3′UTRs of both CaMKIIδ and HDAC4 | no significant difference in red:green ratios | very similar results as IL-1β | did not appear to grow in size | no change in luciferase expression | reversal of IL-1ß expression back to normal, untreated levels | very similar results as IL-1β | targets the 3′UTRs of both CaMKIIδ and HDAC4
